Measurements reported in article PMC4843002, “Identification of pyrazolopyridazinones as PDEδ inhibitors” (Nature Communications, 2016).

Key:
GABA transporter = test: Cerep binding, antagonist radioligand; conditions: 5 µM
CB1 (h) = target: T1, CB1 (h) (Homo sapiens, UniProt P21554); test: Cerep binding, agonist radioligand; conditions: read-out: % Inhibition of Control Specific Binding
T1 construct: purchased Eurofins Pharma Discovery Services (CEREP diversity panel)

PR (h) = target: T2, PR (h) (Homo sapiens, UniProt P06401); test: Cerep binding, agonist radioligand; conditions: read-out: % Inhibition of Control Specific Binding
T2 construct: purchased Eurofins Pharma Discovery Services (CEREP diversity panel)
T2 sequence (P06401 whole entry): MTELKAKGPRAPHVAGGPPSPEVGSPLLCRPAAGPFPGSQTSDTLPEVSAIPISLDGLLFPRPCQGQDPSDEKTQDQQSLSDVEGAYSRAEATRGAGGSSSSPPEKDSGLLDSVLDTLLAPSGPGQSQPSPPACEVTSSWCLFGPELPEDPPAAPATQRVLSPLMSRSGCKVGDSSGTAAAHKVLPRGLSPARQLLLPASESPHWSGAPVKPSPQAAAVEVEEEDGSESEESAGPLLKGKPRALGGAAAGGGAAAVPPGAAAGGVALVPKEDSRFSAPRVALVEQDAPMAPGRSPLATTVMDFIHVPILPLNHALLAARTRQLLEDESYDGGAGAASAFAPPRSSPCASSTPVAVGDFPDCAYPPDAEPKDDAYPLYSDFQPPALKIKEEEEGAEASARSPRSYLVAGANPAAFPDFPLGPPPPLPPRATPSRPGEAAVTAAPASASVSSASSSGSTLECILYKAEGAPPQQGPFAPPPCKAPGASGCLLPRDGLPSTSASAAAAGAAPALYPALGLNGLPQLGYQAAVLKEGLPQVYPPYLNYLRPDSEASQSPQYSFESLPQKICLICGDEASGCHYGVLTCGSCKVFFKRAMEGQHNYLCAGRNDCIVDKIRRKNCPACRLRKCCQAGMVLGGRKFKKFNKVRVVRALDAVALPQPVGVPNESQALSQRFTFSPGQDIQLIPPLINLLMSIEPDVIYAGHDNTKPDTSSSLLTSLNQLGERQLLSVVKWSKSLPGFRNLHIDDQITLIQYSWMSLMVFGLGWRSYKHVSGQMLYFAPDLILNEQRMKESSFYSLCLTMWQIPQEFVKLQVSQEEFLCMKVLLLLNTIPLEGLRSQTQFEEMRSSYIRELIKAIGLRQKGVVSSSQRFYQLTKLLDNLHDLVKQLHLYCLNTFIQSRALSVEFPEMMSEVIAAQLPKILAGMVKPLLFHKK

SKCa channel = test: Cerep binding, antagonist radioligand; conditions: 5 µM
CCK2 (CCKB) (h) = target: T3, CCK2 (CCKB) (h) (Homo sapiens, UniProt P32239); test: Cerep binding, agonist radioligand; conditions: read-out: % Inhibition of Control Specific Binding
T3 construct: purchased Eurofins Pharma Discovery Services (CEREP diversity panel)
T3 sequence (P32239 whole entry): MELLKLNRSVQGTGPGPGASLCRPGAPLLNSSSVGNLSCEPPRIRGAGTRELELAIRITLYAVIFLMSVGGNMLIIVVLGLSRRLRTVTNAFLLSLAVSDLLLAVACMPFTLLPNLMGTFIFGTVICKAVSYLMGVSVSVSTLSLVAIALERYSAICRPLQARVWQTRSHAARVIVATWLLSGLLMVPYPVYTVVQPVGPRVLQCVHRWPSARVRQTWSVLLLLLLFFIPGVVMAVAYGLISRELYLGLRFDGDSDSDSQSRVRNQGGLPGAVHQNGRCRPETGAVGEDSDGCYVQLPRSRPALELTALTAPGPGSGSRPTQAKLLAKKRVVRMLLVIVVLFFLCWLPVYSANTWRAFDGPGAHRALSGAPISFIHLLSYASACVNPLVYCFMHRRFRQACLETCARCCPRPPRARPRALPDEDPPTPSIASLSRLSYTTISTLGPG

NK1 (h) = target: T4, NK1 (h) (Homo sapiens, UniProt P25103); test: Cerep binding, agonist radioligand; conditions: read-out: % Inhibition of Control Specific Binding
T4 construct: purchased Eurofins Pharma Discovery Services (CEREP diversity panel)

[1] = target: T5, N neuronal alpha 4beta 2 (h) (Homo sapiens, UniProt P17787+P43681); test: Cerep binding, agonist radioligand; conditions: read-out: % Inhibition of Control Specific Binding
T5 construct: purchased Eurofins Pharma Discovery Services (CEREP diversity panel)

beta 1 (h) = target: T6, beta 1 (h) (Homo sapiens, UniProt P08588); test: Cerep binding, agonist radioligand; conditions: read-out: % Inhibition of Control Specific Binding
T6 construct: purchased Eurofins Pharma Discovery Services (CEREP diversity panel)

AT2 (h) = target: T7, AT2 (h) (Homo sapiens, UniProt P50052); test: Cerep binding, agonist radioligand; conditions: read-out: % Inhibition of Control Specific Binding
T7 construct: purchased Eurofins Pharma Discovery Services (CEREP diversity panel)
T7 sequence (P50052 whole entry): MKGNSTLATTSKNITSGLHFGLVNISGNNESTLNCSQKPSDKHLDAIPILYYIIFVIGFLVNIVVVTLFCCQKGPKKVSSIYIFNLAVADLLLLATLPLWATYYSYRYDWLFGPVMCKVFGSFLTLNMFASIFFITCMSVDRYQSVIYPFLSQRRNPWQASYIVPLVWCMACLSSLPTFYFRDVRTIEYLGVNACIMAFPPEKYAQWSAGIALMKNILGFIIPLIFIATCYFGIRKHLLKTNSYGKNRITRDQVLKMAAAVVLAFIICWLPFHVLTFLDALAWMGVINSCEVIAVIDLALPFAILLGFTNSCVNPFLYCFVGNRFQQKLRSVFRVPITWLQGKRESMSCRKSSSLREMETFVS

[2] = test system: guanylyl cyclase (h) (activator effect); test: Cerep enzyme and cell-based assays; assay type: biochemical, human; conditions: 5 µM
P2Y = test: Cerep binding, agonist radioligand; conditions: 5 µM
5-lipoxygenase (h) = target: T8, 5-lipoxygenase (h) (Homo sapiens, UniProt P09917); test: Cerep enzyme and cell-based assays; assay type: biochemical; conditions: read-out: % Inhibition of Control Values
T8 construct: purchased Eurofins Pharma Discovery Services (CEREP diversity panel)

A1 (h) = target: T9, A1 (h) (Homo sapiens, UniProt P30542); test: Cerep binding, antagonist radioligand; conditions: read-out: % Inhibition of Control Specific Binding
T9 construct: purchased Eurofins Pharma Discovery Services (CEREP diversity panel)

PDE3A (h) = target: T10, PDE3A (h) (Homo sapiens, UniProt Q14432); test: Cerep enzyme and cell-based assays; assay type: biochemical; conditions: read-out: % Inhibition of Control Values
T10 construct: Eurofins Pharma Discovery Services (CEREP diversity panel, outsourced assay)
T10 sequence (Q14432 whole entry): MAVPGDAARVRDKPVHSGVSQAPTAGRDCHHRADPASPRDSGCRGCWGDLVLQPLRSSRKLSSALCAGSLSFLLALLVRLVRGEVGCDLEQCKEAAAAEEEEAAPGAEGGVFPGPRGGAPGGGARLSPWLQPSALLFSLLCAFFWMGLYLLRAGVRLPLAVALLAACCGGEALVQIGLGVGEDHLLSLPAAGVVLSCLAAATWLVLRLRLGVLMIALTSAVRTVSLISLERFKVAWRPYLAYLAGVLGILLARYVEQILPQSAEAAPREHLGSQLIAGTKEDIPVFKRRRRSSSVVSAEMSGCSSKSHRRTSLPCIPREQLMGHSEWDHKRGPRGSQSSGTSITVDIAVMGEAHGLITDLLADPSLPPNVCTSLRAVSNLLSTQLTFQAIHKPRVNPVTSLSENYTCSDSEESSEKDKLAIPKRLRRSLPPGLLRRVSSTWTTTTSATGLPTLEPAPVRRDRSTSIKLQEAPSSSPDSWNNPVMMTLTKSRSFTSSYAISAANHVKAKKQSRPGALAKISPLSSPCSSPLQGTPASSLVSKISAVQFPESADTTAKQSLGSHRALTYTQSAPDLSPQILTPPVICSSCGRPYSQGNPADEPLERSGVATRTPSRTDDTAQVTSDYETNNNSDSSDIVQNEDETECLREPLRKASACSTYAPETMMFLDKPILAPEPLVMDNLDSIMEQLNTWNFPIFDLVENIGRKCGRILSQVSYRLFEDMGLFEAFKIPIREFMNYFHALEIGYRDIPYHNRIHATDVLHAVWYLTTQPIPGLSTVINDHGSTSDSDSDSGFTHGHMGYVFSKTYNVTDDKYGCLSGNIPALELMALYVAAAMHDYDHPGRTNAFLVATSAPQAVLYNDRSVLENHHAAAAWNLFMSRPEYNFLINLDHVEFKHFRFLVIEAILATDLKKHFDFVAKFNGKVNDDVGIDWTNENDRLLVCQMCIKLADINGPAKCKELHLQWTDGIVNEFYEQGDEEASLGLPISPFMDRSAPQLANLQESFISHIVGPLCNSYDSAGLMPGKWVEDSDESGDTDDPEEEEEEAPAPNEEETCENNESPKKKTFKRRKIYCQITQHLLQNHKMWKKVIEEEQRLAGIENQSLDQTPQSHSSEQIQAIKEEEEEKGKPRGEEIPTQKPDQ

Panc-Tu-I cells [3] = test: RTCA growth profile; assay type: cell-based, human
Experimental: RTCA was performed using 16-well E-plates on the Dual Plate xCELLigence instrument (Roche Applied Science, Indianapolis, IN). This system measures a dimensionless parameter called cell index, which evaluates the ionic environment at an electrode/solution interface and integrates information on cell number. Depending on the cell line 5 × 10^3–1 × 10^4 cells were plated in each well of the 16-well plates in 200 μl of cell culture medium. After seeding, cells were allowed to settle for 30 min at room temperature before being inserted into the xCELLigence instrument in a humidified incubator at 37 °C with 10% CO2. For RTCA experiments assaying cells stably expressing the inducible shRNA transgene, cells were seeded onto the E-plates in medium supplemented with 200 ng ml^−1 doxycycline. […] The small-molecule inhibitors were added at indicated time points and in the indicated concentrations. […] All assays were performed in duplicates. The cell index was normalized to 1 at the time point of drug administration.

M (non-selective) = test: Cerep binding, antagonist radioligand; conditions: 5 µM
D4.4 (h) = target: T11, D4.4 (h) (Homo sapiens, UniProt P21917); test: Cerep binding, antagonist radioligand; conditions: read-out: % Inhibition of Control Specific Binding
T11 construct: purchased Eurofins Pharma Discovery Services (CEREP diversity panel)
T11 sequence (P21917 whole entry): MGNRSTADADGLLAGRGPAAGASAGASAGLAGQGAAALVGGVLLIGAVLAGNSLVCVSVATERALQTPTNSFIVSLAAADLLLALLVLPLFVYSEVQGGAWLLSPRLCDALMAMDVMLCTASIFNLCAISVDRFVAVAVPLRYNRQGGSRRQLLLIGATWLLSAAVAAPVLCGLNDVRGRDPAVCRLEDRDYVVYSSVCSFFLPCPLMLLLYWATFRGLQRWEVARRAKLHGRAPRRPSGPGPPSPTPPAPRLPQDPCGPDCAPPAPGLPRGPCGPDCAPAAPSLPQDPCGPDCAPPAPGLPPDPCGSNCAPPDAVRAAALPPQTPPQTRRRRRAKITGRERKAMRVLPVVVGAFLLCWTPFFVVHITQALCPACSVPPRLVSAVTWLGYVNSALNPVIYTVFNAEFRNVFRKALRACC

CRF1 (h) = target: T12, CRF1 (h) (Homo sapiens, UniProt P34998); test: Cerep binding, agonist radioligand; conditions: read-out: % Inhibition of Control Specific Binding
T12 construct: purchased Eurofins Pharma Discovery Services (CEREP diversity panel)
T12 sequence (P34998 24-415): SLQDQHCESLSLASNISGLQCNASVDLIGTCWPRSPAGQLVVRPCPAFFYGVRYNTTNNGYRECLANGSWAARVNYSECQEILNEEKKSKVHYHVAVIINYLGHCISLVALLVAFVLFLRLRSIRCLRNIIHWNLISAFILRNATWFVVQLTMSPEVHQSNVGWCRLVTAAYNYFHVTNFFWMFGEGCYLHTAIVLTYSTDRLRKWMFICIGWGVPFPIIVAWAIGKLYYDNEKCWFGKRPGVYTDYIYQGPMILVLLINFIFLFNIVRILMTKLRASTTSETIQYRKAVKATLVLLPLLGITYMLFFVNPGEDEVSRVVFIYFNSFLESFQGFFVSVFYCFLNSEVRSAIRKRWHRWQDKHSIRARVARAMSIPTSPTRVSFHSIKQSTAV

PPARgamma (h) = target: T13, PPARgamma (h) (Homo sapiens, UniProt P37231); test: Cerep binding, agonist radioligand; conditions: read-out: % Inhibition of Control Specific Binding
T13 construct: purchased Eurofins Pharma Discovery Services (CEREP diversity panel)

ETA (h) = target: T14, ETA (h) (Homo sapiens, UniProt P25101); test: Cerep binding, agonist radioligand; conditions: read-out: % Inhibition of Control Specific Binding
T14 construct: purchased Eurofins Pharma Discovery Services (CEREP diversity panel)

CysLT1 (LTD4) (h) = target: T15, CysLT1 (LTD4) (h) (Homo sapiens, UniProt Q9Y271); test: Cerep binding, agonist radioligand; conditions: read-out: % Inhibition of Control Specific Binding
T15 construct: purchased Eurofins Pharma Discovery Services (CEREP diversity panel)
T15 sequence (Q9Y271 whole entry): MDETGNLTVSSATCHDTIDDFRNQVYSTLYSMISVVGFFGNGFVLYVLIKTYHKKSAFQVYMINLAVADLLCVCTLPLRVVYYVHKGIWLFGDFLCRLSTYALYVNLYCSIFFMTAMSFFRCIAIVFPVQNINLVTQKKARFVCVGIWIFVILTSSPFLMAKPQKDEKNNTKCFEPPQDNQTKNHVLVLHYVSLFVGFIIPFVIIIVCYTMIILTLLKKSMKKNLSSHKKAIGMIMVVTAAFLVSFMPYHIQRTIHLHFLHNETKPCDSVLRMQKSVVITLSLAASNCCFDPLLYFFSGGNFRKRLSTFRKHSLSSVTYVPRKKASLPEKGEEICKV

[4] = target: choline transporter (CHT1) (h) (Homo sapiens, UniProt Q9GZV3); test: Cerep binding, antagonist radioligand; conditions: read-out: % Inhibition of Control Specific Binding
Chain of choline transporter (CHT1) (h) (Q9GZV3 whole entry): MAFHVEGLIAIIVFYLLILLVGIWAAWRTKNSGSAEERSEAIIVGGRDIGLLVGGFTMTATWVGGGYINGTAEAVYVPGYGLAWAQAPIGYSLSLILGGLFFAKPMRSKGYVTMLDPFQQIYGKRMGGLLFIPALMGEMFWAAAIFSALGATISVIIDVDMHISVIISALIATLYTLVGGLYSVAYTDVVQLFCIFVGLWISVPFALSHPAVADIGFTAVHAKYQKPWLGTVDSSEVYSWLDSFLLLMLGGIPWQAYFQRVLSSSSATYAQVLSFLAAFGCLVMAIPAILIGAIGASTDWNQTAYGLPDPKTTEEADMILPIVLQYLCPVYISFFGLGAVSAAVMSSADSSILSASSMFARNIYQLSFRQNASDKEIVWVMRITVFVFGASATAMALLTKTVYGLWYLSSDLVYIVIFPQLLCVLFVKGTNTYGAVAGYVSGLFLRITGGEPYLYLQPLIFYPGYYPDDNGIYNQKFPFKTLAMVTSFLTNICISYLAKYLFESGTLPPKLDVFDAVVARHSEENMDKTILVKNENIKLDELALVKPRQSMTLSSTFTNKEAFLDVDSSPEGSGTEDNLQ

KV channel = test: Cerep binding, antagonist radioligand; conditions: 5 µM
BZD (central) = test: Cerep binding, agonist radioligand; conditions: 5 µM
NMDA = test: Cerep binding, antagonist radioligand; conditions: 5 µM
NK3 (h) = target: T16, NK3 (h) (Homo sapiens, UniProt P29371); test: Cerep binding, antagonist radioligand; conditions: read-out: % Inhibition of Control Specific Binding
T16 construct: purchased Eurofins Pharma Discovery Services (CEREP diversity panel)

Panc-Tu-I cells [5] = test: long-term time-lapse microscopy; conditions: 72 h, 5 μM Deltarasin or 10 μM Deltazinone 1
CB2 (h) = target: T17, CB2 (h) (Homo sapiens, UniProt P34972); test: Cerep binding, agonist radioligand; conditions: read-out: % Inhibition of Control Specific Binding
T17 construct: purchased Eurofins Pharma Discovery Services (CEREP diversity panel)
T17 sequence (P34972 whole entry): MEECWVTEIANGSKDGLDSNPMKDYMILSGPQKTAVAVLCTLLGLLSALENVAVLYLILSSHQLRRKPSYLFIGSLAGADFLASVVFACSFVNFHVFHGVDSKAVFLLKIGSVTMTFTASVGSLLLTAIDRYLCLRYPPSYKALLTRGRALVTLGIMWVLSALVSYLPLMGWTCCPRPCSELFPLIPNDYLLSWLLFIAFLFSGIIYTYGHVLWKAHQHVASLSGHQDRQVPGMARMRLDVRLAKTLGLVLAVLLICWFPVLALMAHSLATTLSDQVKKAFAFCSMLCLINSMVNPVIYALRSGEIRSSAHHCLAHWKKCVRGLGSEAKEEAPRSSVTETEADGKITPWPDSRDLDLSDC

opioid (non-selective) = test: Cerep binding, antagonist radioligand; conditions: 5 µM
[6] = test system: adenylyl cyclase (activator effect); test: Cerep enzyme and cell-based assays; assay type: biochemical; conditions: 5 µM
PANC-1 cells = assay type: cell-based
Experimental: (§1) RTCA was performed using 16-well E-plates on the Dual Plate xCELLigence instrument (Roche Applied Science, Indianapolis, IN). This system measures a dimensionless parameter called cell index, which evaluates the ionic environment at an electrode/solution interface and integrates information on cell number. Depending on the cell line 5 × 10^3–1 × 10^4 cells were plated in each well of the 16-well plates in 200 μl of cell culture medium. After seeding, cells were allowed to settle for 30 min at room temperature before being inserted into the xCELLigence instrument in a humidified incubator at 37 °C with 10% CO2. For RTCA experiments assaying cells stably expressing the inducible shRNA transgene, cells were seeded onto the E-plates in medium supplemented with 200 ng ml^−1 doxycycline. For RTCA experiments, the cells were treated with Deltarasin or Deltazinone 1 after reaching a steady growth (24 h/48 h). The small-molecule inhibitors were added at indicated time points and in the indicated concentrations. […] Continuous impedance measurements were then monitored every 15 min for up to 200 h. All assays were performed in duplicates. The cell index was normalized to 1 at the time point of drug administration. […]

BxPC-3 cells = assay type: cell-based
Experimental: as §1

AT1 (h) = target: T18, AT1 (h) (Homo sapiens, UniProt P30556); test: Cerep binding, antagonist radioligand; conditions: read-out: % Inhibition of Control Specific Binding
T18 construct: purchased Eurofins Pharma Discovery Services (CEREP diversity panel)

ETB (h) = target: T19, ETB (h) (Homo sapiens, UniProt P24530); test: Cerep binding, agonist radioligand; conditions: read-out: % Inhibition of Control Specific Binding
T19 construct: purchased Eurofins Pharma Discovery Services (CEREP diversity panel)

| SMILES | % Inhibition of Control Specific Binding (GABA transporter) [%] | inhibition at 5 µM (CB1 (h)) [%] | inhibition at 5 µM (PR (h)) [%] | % Inhibition of Control Specific Binding (SKCa channel) [%] | inhibition at 5 µM (CCK2 (CCKB) (h)) [%] | inhibition at 5 µM (NK1 (h)) [%] | inhibition at 5 µM [1] [%] | inhibition at 5 µM (beta 1 (h)) [%] | inhibition at 5 µM (AT2 (h)) [%] | % Inhibition of Control Values [2] [%] | % Inhibition of Control Specific Binding (P2Y) [%] | inhibition at 5 µM (5-lipoxygenase (h)) [%] | inhibition at 5 µM (A1 (h)) [%] | inhibition at 5 µM (PDE3A (h)) [%] | % Inhibition of Control Specific Binding (M (non-selective)) [%] | inhibition at 5 µM (D4.4 (h)) [%] | inhibition at 5 µM (CRF1 (h)) [%] | inhibition at 5 µM (PPARgamma (h)) [%] | inhibition at 5 µM (ETA (h)) [%] | inhibition at 5 µM (CysLT1 (LTD4) (h)) [%] | also measured |
| --- | --- | --- | --- | --- | --- | --- | --- | --- | --- | --- | --- | --- | --- | --- | --- | --- | --- | --- | --- | --- | --- |
| Cc1ccc(-n2nc3c(=O)n(CCCC(=O)NCC(C)c4ccccc4)nc(C)c3c2C)cc1 (stereo not drawn) [2k] | -1 | -12 | 3 | 0 | -22 | 3 | -8 | -1 | 10 | 3 | 16 | 1 | 0 | 1 | 21 | 2 | -43 | -14 | -7 | 0 | onset of cell death after treatment (Panc-Tu-I cells [3]; 24 μM): ~13 h; time after administration at which decreasing cell indices indicated cell death (Panc-Tu-I cells [3]; doses higher than 3 μM): ~30 h; inhibition at 5 µM [4]: 18%; % Inhibition of Control Specific Binding (KV channel): -8%; % Inhibition of Control Specific Binding (BZD (central)): -24%; % Inhibition of Control Specific Binding (NMDA): 1%; inhibition at 5 µM (NK3 (h)): 17%; cell death in time-lapse microscopy (Panc-Tu-I cells [5]): cell death; inhibition at 5 µM (CB2 (h)): 12%; % Inhibition of Control Specific Binding (opioid (non-selective)): 42%; % Inhibition of Control Values [6]: 2%; effect on growth (PANC-1 cells; PANC-1, doses up to 24 μM): little or no growth inhibitory effect; effect on growth (BxPC-3 cells; BxPC-3, doses up to 24 μM): little or no growth inhibitory effect; inhibition at 5 µM (AT1 (h)): 9%; inhibition at 5 µM (ETB (h)): -12% |
| c1ccc(Cn2c(-c3ccc(OC[C@H](C4CCNCC4)n4c(-c5ccccc5)nc5ccccc54)cc3)nc3ccccc32)cc1 [Deltarasin, reference compound] | 20 | 7 | 41 | 3 | 29 | 89 | -10 | 21 | 49 | 0 | 13 | 33 | 37 | 11 | 96 | 0 | 34 | 21 | 2 | -5 | onset of detectable cell death post treatment (Panc-Tu-I cells [3]; 5 μM): ~9 h; inhibition at 5 µM [4]: 27%; % Inhibition of Control Specific Binding (KV channel): -2%; % Inhibition of Control Specific Binding (BZD (central)): -17%; % Inhibition of Control Specific Binding (NMDA): 11%; inhibition at 5 µM (NK3 (h)): 61%; cell death in time-lapse microscopy (Panc-Tu-I cells [5]): cell death; inhibition at 5 µM (CB2 (h)): 24%; % Inhibition of Control Specific Binding (opioid (non-selective)): 12%; % Inhibition of Control Values [6]: 2%; concentration resulting in rapid cell death (unspecific cytotoxicity) (PANC-1 cells; human): above 9 μM; concentration resulting in rapid cell death (unspecific cytotoxicity) (BxPC-3 cells; human): above 9 μM; inhibition at 5 µM (AT1 (h)): 41%; inhibition at 5 µM (ETB (h)): 15% |
